The results in this text go back to US9765074B2, “Inhibitors of the renal outer medullary potassium channel” (Merck Sharp & Dohme Corp., priority 2013, dated 2017).

SMILES strings stand for the structures.

For this experiment, the target named is T1, hROMK (hKir1.1) (Homo sapiens, UniProt P48048).
T1 construct: expressed in transfected cells
T1 sequence (P48048 1-391): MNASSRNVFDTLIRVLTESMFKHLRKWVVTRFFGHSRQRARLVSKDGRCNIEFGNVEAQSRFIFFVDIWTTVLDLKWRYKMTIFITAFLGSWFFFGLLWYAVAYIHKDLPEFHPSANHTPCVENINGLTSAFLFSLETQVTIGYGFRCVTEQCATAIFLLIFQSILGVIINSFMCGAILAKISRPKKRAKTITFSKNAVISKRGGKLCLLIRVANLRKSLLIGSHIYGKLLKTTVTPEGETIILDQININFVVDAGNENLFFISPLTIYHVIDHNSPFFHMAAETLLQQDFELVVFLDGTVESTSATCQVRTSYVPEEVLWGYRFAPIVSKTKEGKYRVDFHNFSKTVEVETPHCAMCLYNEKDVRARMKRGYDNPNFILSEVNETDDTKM
Kind of experiment: Thallium Flux Assay (ROMK channel functional thallium flux, FLIPR-Tetra). As to conditions: HEK293 cells stably expressing hROMK (hKir1.1); 30 min compound incubation. Format: cell-based. In a few lines: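 HEK293 cells stably expressing hKir1.1, loaded with FluxOR dye for 90 min, then preincubated with compound for 30 min at ambient temperature with 0.3 mM ouabain and probenecid. Stimulated with 3 mM thallium/0.3 mM potassium (final); fluorescence read ~10 min. Normalized to 3 μM reference ROMK inhibitor; IC50 from inhibition of flux.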
Molecule `CO[C@H](CN1CCC2(CC1)C[C@@H](C)N(C1=C(C)C(=O)OC1)C2=O)c1ccc(-n2cnnn2)nc1` [Example 287, (3R)-8-{(2S)-2-methoxy-2-[6-(1H-tetrazol-1-yl)pyridin-3-yl]ethyl}-3-methyl-2-(4-methyl-5-oxo-2,5-dihydrofuran-3-yl)-1-oxo-2-aza-8-azoniaspiro[4.5]decane] showed an IC50 of 100 nM. As for `CC1=C(N2CCC3(CCN(C[C@H](O)c4nnc(-n5cnnn5)c(C)c4C)CC3)C2=O)COC1=O` [Example 69, 8-{(2S)-2-[4,5-dimethyl-6-(1H-tetrazol-1-yl)pyridazin-3-yl]-2-hydroxyethyl}-2-(4-methyl-5-oxo-2,5-dihydrofuran-3-yl)-1-oxo-2-aza-8-azoniaspiro[4.5]decane], the figure is 40 nM; as for `CC1=C(N2CCC3(CC4CN(C)CC(C3)N4C[C@H](O)c3ccc(-n4cnnn4)nc3)C2=O)COC1=O` (stereo partly drawn) [Example 112, (1R,5R,7R,9R)-9-{(2R)-2-hydroxy-2-[6-(1H-tetrazol-1-yl)pyridin-3-yl]ethyl}-7-methyl-1′-(4-methyl-5-oxo-2,5-dihydrofuran-3-yl)-2′-oxospiro[7,9-diazoniabicyclo[3.3.1]nonane-3,3′-pyrrolidine]], 410 nM. The figure for `O=C1C=C(N2CCC3(CCN(C[C@@H](O)c4ccc(-n5cnnn5)nc4)CC3)C2=O)CO1` (single isomer, unassigned) [Example 2] is 50 nM. As for `COC1CN(C[C@H](O)c2ccc(-n3cnnn3)nc2)CCC12CCN(C1=C(C)C(=O)OC1)C2=O` (single isomer, unassigned) [Example 176], the figure is 90 nM. `CC1=C(N2CCC3(CCN(C[C@H](O)c4ccc(-n5cnnn5)cc4F)CC3)C2=O)COC1=O` [Example 36, 8-{(2R)-2-[2-fluoro-4-(1H-tetrazol-1-yl)phenyl]-2-hydroxyethyl}-2-(4-methyl-5-oxo-2,5-dihydrofuran-3-yl)-1-oxo-2-aza-8-azoniaspiro[4.5]decane] came in with an IC50 of 10 nM.

`CC1=C(N2C=CC3(CCN(CCc4ncc(-n5cnnn5)nc4C)CC3)C2=O)COC1=O` [Example 263, 2-(4-methyl-5-oxo-2,5-dihydrofuran-3-yl)-8-{2-[3-methyl-5-(1H-tetrazol-1-yl)pyrazin-2-yl]ethyl}-1-oxo-2-aza-8-azoniaspiro[4.5]dec-3-ene]: the IC50 was found to be 10 nM. Molecule `CC1=C(N2CCC3(CCN(C[C@@H](O)c4cccc(-n5cnnn5)n4)CC3)C2=O)COC1=O` [Example 74, 8-{(2R)-2-hydroxy-2-[6-(1H-tetrazol-1-yl)pyridin-2-yl]ethyl}-2-(4-methyl-5-oxo-2,5-dihydrofuran-3-yl)-1-oxo-2-aza-8-azoniaspiro[4.5]decane] displayed an IC50 of 90 nM. The molecule `CC1=C(N2CC(=O)C3(CCN(C[C@H](O)c4ccc(-n5cnnn5)nc4)CC3)C2=O)COC1=O` [Example 97, 8-{(2R)-2-hydroxy-2-[6-(1H-tetrazol-1-yl)pyridin-3-yl]ethyl}-2-[4-methyl-5-oxo-2,5-dihydrofuran-3-yl)-1,4-dioxo-2-aza-8-azoniaspiro[4.5]decane] had an IC50 of 20 nM. In turn, `CC1=C(N2CCC3(CC4CCC(C3)N4C[C@@H](O)c3ccc(-n4cnnn4)cn3)C2=O)COC1=O` (stereo partly drawn) [Example 46, (1R,5R)-8-{(2R)-2-hydroxy-2-[5-(1H-tetrazol-1-yl)pyridin-2-yl]ethyl}-1′-(4-methyl-5-oxo-2,5-dihydrofuran-3-yl)-2′-oxospiro[8-azoniabicyclo[3.2.1]octane-3,3′-pyrrolidine]] gave an IC50 of 20 nM. For the molecule `C[C@H]1CC2(CCN(C[C@@H](O)c3cnc(-n4cnnn4)cn3)CC2)C(=O)N1C1=CC(=O)OC1` [Example 78, (3S)-8-{(2R)-2-hydroxy-2-[5-(1H-tetrazol-1-yl)pyrazin-2-yl]ethyl}-3-methyl-1-oxo-2-(5-oxo-2,5-dihydrofuran-3-yl)-2-aza-8-azoniaspiro[4.5]decane], the IC50 is 10 nM. As for `COCC1=C(N2CCC3(CCN(C[C@H](O)c4ccc(-n5cnnn5)nn4)CC3)C2=O)COC1=O` [Example 191, 8-{(2S)-2-hydroxy-2-[6-(1H-tetrazol-1-yl)pyridazin-3-yl]ethyl}-2-[4-(methoxymethyl)-5-oxo-2,5-dihydrofuran-3-yl]-2,8-diazaspiro[4.5]decan-1-one], the figure is 70 nM; as for `Cc1nc(-n2cnnn2)cnc1C(O)CN1CCC2(CC1)C[C@H](C)N(C1=CC(=O)OC1)C2=O` (mixture of isomers) [Example 165, (3S)-8-{2-hydroxy-2-[3-methyl-5-(1H-tetrazol-1-yl)pyrazin-2-yl]ethyl}-3-methyl-2-(5-oxo-2,5-dihydrofuran-3-yl)-2,8-diazaspiro[4.5]decan-1-one], 10 nM.

For the molecule `O=C1C=C(N2CCC3(CCN(C[C@H](O)c4ccc(-n5cnnn5)nc4)CC3)C2=O)CO1` [Example 1, 8-{(2R)-2-Hydroxy-2-[6-(1H-tetrazol-1-yl)pyridin-3-yl]ethyl}-1-oxo-2-(5-oxo-2,5-dihydrofuran-3-yl)-2-aza-8-azoniaspiro[4.5]decane], the IC50 turned out to be 10 nM. In turn, `CC1=C(N2C=CC3(CCN([C@H](C)Cc4ccc(-n5cnnn5)nn4)CC3)C2=O)COC1=O` (single isomer, unassigned) [Example 273] showed an IC50 of 4 nM. Take `Cc1nc(-n2cnnn2)ccc1[C@H](O)CN1C2CCC1CC1(CCN(C3=CC(=O)OC3)C1=O)C2` (stereo partly drawn) [Example 42, (1R,5R)-8-{(2S)-2-hydroxy-2-[2-methyl-6-(1H-tetrazol-1-yl)pyridin-3-yl]ethyl}-2′-oxo-1′-(5-oxo-2,5-dihydrofuran-3-yl)spiro[8-azoniabicyclo[3.2.1]octane-3,3′-pyrrolidine]]: it took 20 nM to reach half-maximal inhibition (IC50).

In turn, `CC1=C(N2CCC3(CCN(C[C@@H](C)c4ccc(-n5cnnn5)nn4)CC3)C2=O)COC1=O` (single isomer, unassigned) [Example 291] showed an IC50 of 80 nM. Take `CC1=C(N2CCC3(CCN(C[C@H](O)c4ccc(-n5cnnn5)c(C#N)c4)CC3)C2=O)COC1=O` [Example 95, 8-{(2R)-2-[3-cyano-4-(1H-tetrazol-1-yl)phenyl]-2-hydroxyethyl}-2-(4-methyl-5-oxo-2,5-dihydrofuran-3-yl)-1-oxo-2-aza-8-azoniaspiro[4.5]decane]: the IC50 is 50 nM. For `C[C@H]1CC2(CCN(CCc3ncc(-n4cnnn4)nc3C3CC3)CC2)C(=O)N1C1=CC(=O)OC1` [Example 270, (S)-8-(2-(3-cyclopropyl-5-(1H-tetrazol-1-yl)pyrazin-2-yl)ethyl)-3-methyl-2-(5-oxo-2,5-dihydrofuran-3-yl)-2,8-diazaspiro[4.5]decan-1-one], the IC50 was found to be 10 nM. As to `CC1=C(N2CCC3(CCN(C[C@H](O)c4c(F)cc(-n5cnnn5)cc4F)CC3)C2=O)COC1=O` [Example 76, 8-{(2R)-2-[2,6-difluoro-4-(1H-tetrazol-1-yl)phenyl]-2-hydroxyethyl}-2-(4-methyl-5-oxo-2,5-dihydrofuran-3-yl)-1-oxo-2-aza-8-azoniaspiro[4.5]decane], 20 nM corresponded to half-maximal inhibition (IC50). For the molecule `CC1CC2(CC3CCC(C2)N3C[C@@H](O)c2cnc(-n3cnnn3)cn2)C(=O)N1C1=CC(=O)OC1` (single isomer, unassigned) [Example 92], half-maximal inhibition (IC50) required 20 nM. Turning to `CC1=C(N2CC(O)C3(CCN(CCc4ccc(-n5cnnn5)nc4)CC3)C2=O)COC1=O` (single isomer, unassigned) [Example 245, 4-hydroxy-2-(4-methyl-5-oxo-2,5-dihydrofuran-3-yl)-1-oxo-8-{2-[6-(1H-tetrazol-1-yl)pyridin-3-yl]ethyl}-2-aza-8-azoniaspiro[4.5]decane], the IC50 worked out at 20 nM.

The molecule `CC1=C(N2C(=O)C3(CCN(C[C@@H](O)c4ccc(-n5cnnn5)nn4)CC3)CC2C)COC1=O` (single isomer, unassigned) [Example 124] returned an IC50 of 40 nM. Turning to `COc1cc(-n2cnnn2)ncc1[C@@H](O)CN1CCC2(CC1)CCN(C1=C(C)C(=O)OC1)C2=O` [Example 93, 8-{(2R)-2-hydroxy-2-[4-methoxy-6-(1H-tetrazol-1-yl)pyridin-3-yl]ethyl}-2-(4-methyl-5-oxo-2,5-dihydrofuran-3-yl)-1-oxo-2-aza-8-azoniaspiro[4.5]decane], the IC50 came to 30 nM. On to `CC1=C(N2CCC3(CCN(C[C@@H](O)c4ccc(-n5cnnn5)nn4)CC3)C2=O)COC1=O` [Example 33, 8-{(2R)-2-hydroxy-2-[6-(1H-tetrazol-1-yl)pyridazin-3-yl]ethyl}-2-(4-methyl-5-oxo-2,5-dihydrofuran-3-yl)-1-oxo-2-aza-8-azoniaspiro[4.5]decane], for which the IC50 was determined as 20 nM.

In turn, `CC1=C(N2C=CC3(CCN([C@@H](C)Cc4ccc(-n5cnnn5)nn4)CC3)C2=O)COC1=O` (single isomer, unassigned) [Example 272] displayed an IC50 of 10 nM.

Take `COc1nc(-n2cnnn2)ccc1[C@H](O)CN1CCC2(CC1)CCN(C1=C(C)C(=O)OC1)C2=O` [Example 150, 8-{(2S)-2-hydroxy-2-[2-methoxy-6-(1H-tetrazol-1-yl)pyridin-3-yl]ethyl}-2-(4-methyl-5-oxo-2,5-dihydrofuran-3-yl)-2,8-diazaspiro[4.5]decan-1-one]: the IC50 stood at 20 nM. In the case of `CC1=C(N2CCC3(CC4CCC(C3)N4C[C@H](O)c3cc(C)c(-n4cnnn4)nn3)C2=O)COC1=O` (stereo partly drawn) [Example 55, (1R,5R)-8-{(2S)-2-hydroxy-2-[5-methyl-6-(1H-tetrazol-1-yl)pyridazin-3-yl]ethyl}-1′-(4-methyl-5-oxo-2,5-dihydrofuran-3-yl)-2′-oxospiro[8-azoniabicyclo[3.2.1]octane-3,3′-pyrrolidine]], the midpoint of inhibition, the IC50, lay at 50 nM.
